Measurements taken from ChEMBL document CHEMBL1201862, “PubChem BioAssay data set” (2004).
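Where inhibition never reached the appropriate level, the endpoint shown equals the highest concentration tested. Otherwise, values were interpolated linearly from a five-concentration, 48-hour dose response in 96-well plates. GI50 is the concentration that inhibits growth by half.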 Calls of active or inactive are those of the source. No stated cut-off is given here; in the data, active = GI50 up to about 1.1 µM and inactive = higher.

Legend:
Assay in all cases: NCI tumour cell line growth inhibition, 48 h
786-0 = test system: 786-0
A498 = test system: A498
DLD-1 = test system: DLD-1
HCT-116 = test system: HCT-116
HL-60 = test system: HL-60
HT-29 = test system: HT-29
LOX IMVI = test system: LOX IMVI
M14 = test system: M14
NCI-H226 = test system: NCI-H226
NCI-H522 = test system: NCI-H522
OVCAR-8 = test system: OVCAR-8
SF-268 = test system: SF-268
SK-MEL-5 = test system: SK-MEL-5
SN12C = test system: SN12C
TK-10 = test system: TK-10
UO-31 = test system: UO-31
IGROV-1 = test system: IGROV-1
MDA-N = test system: MDA-N
NCI/ADR-RES = test system: NCI/ADR-RES
PC-3 = test system: PC-3

| SMILES | GI50 (786-0) | GI50 (A498) | GI50 (DLD-1) | GI50 (HCT-116) | GI50 (HL-60) | GI50 (HT-29) | GI50 (LOX IMVI) | GI50 (M14) | GI50 (NCI-H226) | GI50 (NCI-H522) | GI50 (OVCAR-8) | GI50 (SF-268) | GI50 (SK-MEL-5) | GI50 (SN12C) | GI50 (TK-10) | GI50 (UO-31) | GI50 (IGROV-1) | GI50 (MDA-N) | GI50 (NCI/ADR-RES) | GI50 (PC-3) |
| --- | --- | --- | --- | --- | --- | --- | --- | --- | --- | --- | --- | --- | --- | --- | --- | --- | --- | --- | --- | --- |
| N#C/C(=C\c1c(O)cc(O)cc1O)C(N)=O | > 100 µM (inactive) | > 100 µM (inactive) | > 100 µM (inactive) | > 100 µM (inactive) | > 100 µM (inactive) | > 100 µM (inactive) | > 100 µM (inactive) | > 100 µM (inactive) | > 100 µM (inactive) | > 100 µM (inactive) | > 100 µM (inactive) | > 100 µM (inactive) | > 100 µM (inactive) | > 100 µM (inactive) | > 100 µM (inactive) | > 100 µM (inactive) | – | – | – | – |
| CO[C@H](c1ccccc1)[C@H](C)N(C)c1ccc2ccccc2c1C1=NC(C)(C)CO1 | 16.2 µM (inactive) | – | 13 µM (inactive) | 10.8 µM (inactive) | 21.3 µM (inactive) | 10.7 µM (inactive) | – | 16.5 µM (inactive) | 16.2 µM (inactive) | 4.21 µM (inactive) | 13.8 µM (inactive) | 18.4 µM (inactive) | 88.3 µM (inactive) | 18 µM (inactive) | 22.9 µM (inactive) | 13.7 µM (inactive) | 33.1 µM (inactive) | – | – | – |
| CCOC(=O)c1cnc2cc3cccccc3n2c1=O | > 100 µM (inactive) | > 100 µM (inactive) | > 100 µM (inactive) | 39.3 µM (inactive) | > 100 µM (inactive) | > 100 µM (inactive) | > 100 µM (inactive) | > 100 µM (inactive) | > 100 µM (inactive) | – | > 100 µM (inactive) | > 100 µM (inactive) | – | > 100 µM (inactive) | > 100 µM (inactive) | > 100 µM (inactive) | > 100 µM (inactive) | – | – | – |
| C[N+](C)(C)CC(=O)N/N=C(/Cc1nc2ccc([N+](=O)[O-])cc2nc1O)C(=O)Nc1cc(C(F)(F)F)ccc1Cl | > 100 µM (inactive) | > 100 µM (inactive) | > 100 µM (inactive) | > 100 µM (inactive) | > 100 µM (inactive) | > 100 µM (inactive) | – | > 100 µM (inactive) | – | 28.4 µM (inactive) | > 100 µM (inactive) | > 100 µM (inactive) | > 100 µM (inactive) | > 100 µM (inactive) | > 100 µM (inactive) | 40.8 µM (inactive) | > 100 µM (inactive) | – | – | – |
| CCCC(C)C[C@@H](C)CC(C)/C=C(\C)c1oc(=O)c(C)c(O)c1C.CC[C@@H](C)C[C@@H](C)C[C@@H](C)/C=C(\C)c1oc(=O)c(C)c(O)c1C (stereo not given in full) | 14.5 µM (inactive) | – | 13.5 µM (inactive) | 17.6 µM (inactive) | 13.6 µM (inactive) | 13.9 µM (inactive) | 17.1 µM (inactive) | 15.5 µM (inactive) | 15.5 µM (inactive) | 14.8 µM (inactive) | 20.3 µM (inactive) | 14.1 µM (inactive) | – | 15.3 µM (inactive) | 19.5 µM (inactive) | 13.6 µM (inactive) | – | – | – | – |
| CC1(O)C(C)(O)C2(C)O[Te]3(OC12C)OC1(C)C(C)(O)C(C)(O)C1(C)O3 (stereo not given) | 56.8 µM (inactive) | > 10 µM (inactive) | 33 µM (inactive) | – | 10.6 µM (inactive) | 27.3 µM (inactive) | 4.41 µM (inactive) | > 100 µM (inactive) | 29.4 µM (inactive) | 17.8 µM (inactive) | 16.1 µM (inactive) | > 10 µM (inactive) | 15 µM (inactive) | 23.1 µM (inactive) | 23.1 µM (inactive) | 27.5 µM (inactive) | 12.3 µM (inactive) | – | – | – |
| CCCCCCN(N)C(=O)CC#N | > 100 µM (inactive) | > 100 µM (inactive) | 87.3 µM (inactive) | 47.6 µM (inactive) | – | > 100 µM (inactive) | 72.1 µM (inactive) | > 100 µM (inactive) | > 100 µM (inactive) | 23.9 µM (inactive) | > 100 µM (inactive) | > 100 µM (inactive) | 70.6 µM (inactive) | > 100 µM (inactive) | > 100 µM (inactive) | > 100 µM (inactive) | > 100 µM (inactive) | – | – | – |
| C/C(=N/N)c1ccc2[nH]c3c(C)cc([N+](=O)[O-])c(C)c3c2c1 | 4.6 µM (inactive) | – | 3.18 µM (inactive) | 4.09 µM (inactive) | > 100 µM (inactive) | 8.2 µM (inactive) | 4.99 µM (inactive) | 15 µM (inactive) | 14.3 µM (inactive) | 8.51 µM (inactive) | 5.3 µM (inactive) | 8.22 µM (inactive) | 5 µM (inactive) | 3.95 µM (inactive) | 12.2 µM (inactive) | 10.5 µM (inactive) | – | – | – | – |
| O=C1CCCC2COc3ccc(O)c1c32 (stereo not given) | > 100 µM (inactive) | > 100 µM (inactive) | > 100 µM (inactive) | – | > 100 µM (inactive) | > 100 µM (inactive) | – | > 100 µM (inactive) | > 100 µM (inactive) | > 100 µM (inactive) | > 100 µM (inactive) | > 100 µM (inactive) | > 100 µM (inactive) | > 100 µM (inactive) | > 100 µM (inactive) | > 100 µM (inactive) | > 100 µM (inactive) | – | – | – |
| Cc1cc(O)c2c3c1C(=O)Oc1c(CO)c(O)c(C(=O)O)c(c1O3)C=NN=Cc1c3c(c(CO)c(O)c1C(=O)O)OC(=O)c1c(C)cc(O)c(c1O3)C=NN=C2 | > 100 µM (inactive) | > 100 µM (inactive) | > 100 µM (inactive) | > 100 µM (inactive) | – | > 100 µM (inactive) | > 100 µM (inactive) | > 100 µM (inactive) | > 100 µM (inactive) | – | > 100 µM (inactive) | > 100 µM (inactive) | 40.2 µM (inactive) | > 100 µM (inactive) | > 100 µM (inactive) | > 100 µM (inactive) | > 100 µM (inactive) | – | – | – |
| O=C1CCC2(CC1)SCCCS2 | > 100 µM (inactive) | > 100 µM (inactive) | > 100 µM (inactive) | – | > 100 µM (inactive) | > 100 µM (inactive) | > 100 µM (inactive) | > 100 µM (inactive) | > 100 µM (inactive) | > 100 µM (inactive) | > 100 µM (inactive) | > 100 µM (inactive) | > 100 µM (inactive) | > 100 µM (inactive) | > 100 µM (inactive) | > 100 µM (inactive) | > 100 µM (inactive) | – | – | – |
| Cc1no[n+]([O-])c1/C=N/NS(=O)(=O)c1ccccc1 | > 100 µM (inactive) | 75.3 µM (inactive) | > 100 µM (inactive) | > 100 µM (inactive) | > 100 µM (inactive) | > 100 µM (inactive) | – | > 100 µM (inactive) | – | > 100 µM (inactive) | > 100 µM (inactive) | > 100 µM (inactive) | > 100 µM (inactive) | > 100 µM (inactive) | > 100 µM (inactive) | > 100 µM (inactive) | > 100 µM (inactive) | – | – | – |
| O/N=C1/C(=C/c2ccc(Cl)c(Cl)c2)CCCC1C(NO)c1ccc(Cl)c(Cl)c1 (stereo not given) | 19.5 µM (inactive) | 14.4 µM (inactive) | 16.9 µM (inactive) | 16.2 µM (inactive) | 17.6 µM (inactive) | 16.7 µM (inactive) | – | 17.4 µM (inactive) | – | 10.1 µM (inactive) | 18.7 µM (inactive) | 23.5 µM (inactive) | 18.5 µM (inactive) | 17.8 µM (inactive) | 19.8 µM (inactive) | 18.7 µM (inactive) | 19.9 µM (inactive) | – | – | – |
| COC(=O)c1nc2n(n1)-c1ccccc1C(=O)N(Cc1ccccc1)C2 | > 100 µM (inactive) | > 100 µM (inactive) | – | > 100 µM (inactive) | > 100 µM (inactive) | > 100 µM (inactive) | > 100 µM (inactive) | > 100 µM (inactive) | > 100 µM (inactive) | > 100 µM (inactive) | > 100 µM (inactive) | > 100 µM (inactive) | > 100 µM (inactive) | > 100 µM (inactive) | > 100 µM (inactive) | > 100 µM (inactive) | > 100 µM (inactive) | > 100 µM (inactive) | > 100 µM (inactive) | > 100 µM (inactive) |
| CC[C@H]1C=CCC[C@@]2(C[C@@H]3CC[C@H]4[C@@H](C(=O)OCCCCCCCCCCCCCCCC(=O)N(CCCNC(C)=O)C[C@H](CCNC(C)=O)OC(C)=O)[C@@]5(CCC[C@@H](C)O5)NC(=[N+]34)N2)O1 | 1.98 µM (inactive) | 1.83 µM (inactive) | – | 1.58 µM (inactive) | 1.14 µM (inactive) | 1.4 µM (inactive) | 1.64 µM (inactive) | 1.73 µM (inactive) | 1.41 µM (inactive) | 1.24 µM (inactive) | 1.4 µM (inactive) | 1.66 µM (inactive) | 1.3 µM (inactive) | 2.01 µM (inactive) | 1.56 µM (inactive) | 1.78 µM (inactive) | 1.31 µM (inactive) | 1.69 µM (inactive) | > 10 µM (inactive) | 1.07 µM (active) |
| COc1cccc2c1C(=O)c1c(O)c3c(c(O)c1C2=O)CC(O)(C(=O)CO)CC3OC1CC(N2CCOCC2C#N)C(O)C(C)O1 (stereo not given) | < 0.0001 µM (active) | > 0.01 µM (active) | – | < 0.0001 µM (active) | < 0.0001 µM (active) | < 0.0001 µM (active) | < 0.0001 µM (active) | < 0.0001 µM (active) | < 0.0001 µM (active) | < 0.0001 µM (active) | < 0.0001 µM (active) | > 0.01 µM (active) | < 0.0001 µM (active) | < 0.0001 µM (active) | < 0.0001 µM (active) | > 0.01 µM (active) | > 0.01 µM (active) | < 0.0001 µM (active) | < 0.0001 µM (active) | < 0.0001 µM (active) |
